Measurements from article PMC11821258 (Molecules, 2025).
Where two headings read alike, the source gives them in different places.

Experiments:
[1] = system: human biphenotypic B myelomonocytic leukemia MV4-11; settings: MV4-11, literature data ref 36; cited from earlier work
[2] = system: human lung carcinoma A549; settings: A549, literature data ref 36; cited from earlier work
[3] = system: human breast cancer MCF-7; settings: MCF-7, literature data ref 36; cited from earlier work
[4] = system: human prostate adenocarcinoma PC-3; settings: PC-3, literature data ref 36; cited from earlier work
[5] = system: human colon cancer HCT116 cells; settings: HCT116, literature data ref 36; cited from earlier work
[6] = system: human normal epithelial cells from the mammary gland (MCF-10A); settings: literature data ref 36; cited from earlier work
[7] = system: human biphenotypic B myelomonocytic leukemia MV4-11; assay: Antiproliferative activity, MTT assay, 72 h; type: cell-based
Procedure: (§1) The tested compounds were dissolved in DMSO (dimethyl sulfoxide) to a concentration of 10 mg/mL and then were diluted in the culture medium to reach the final concentrations. The cells were plated in 384-well plates at a density of 1 × 10^3 or 2 × 10^3 (MCF-10A) cells per well (Greiner Bio One, Kremsmünster, Austria) and in 96-well plates (MV4-11 cell; Sarstedt, Nümbrecht, Germany) at a density of 5 × 10^3 cells per well. After 24 h of incubation, the tested compounds were added at concentrations in the range of 100–0.03 µg/mL and, after the next 72 h of exposure to tested agents, the cytotoxic effect of all agents was examined using the MTT (MV4-11) or SRB assay, described previously. The values of IC50 (inhibitory concentration 50%) were calculated separately for each experiment (repeated 3–5 times) using the Prolab-3 system which is based on Cheburator 0.4 software. Doxorubicin was applied as a reference drug. The IC50 values in µg/mL were calculated to µM.
This assay was used against MV4-11 leukemia cells and was performed after 72 h of exposure of the tested agents to the cells. For each well, 20 µL of the MTT [3-(4,5-dimethylthiazol-2-yl)-2,5-diphenyl tetrazolium bromide] solution (5 mg/mL, Merck, Darmstadt, Germany) was added. After the incubation time (4 h at 37 °C), 80 µL of the lysing buffer was added to each well (mixture of 225 mL of DMF (dimethylformamide) Avantor, Poland; 67.5 g of SDS, Merck, Darmstadt, Germany; and 275 mL of distilled water). After the next 24 h, the absorbance of the samples was measured at a 570 nm wavelength on a Synergy H4 photometer (BioTek Instruments, Winooski, VT, USA). The absorbance of wells without the cells was the background.

[8] = system: human breast cancer MCF-7; assay: Antiproliferative activity, SRB assay, 72 h; type: cell-based
Procedure: as §1
(§2) The cytotoxicity assay was performed after the cultured cells were exposed to the tested agents for 72 h using the authomatic Washer dyspenser EL406, BioTek. At the first step, the washer dispenser collected 40 µL of cultured medium from each wells, and then the cells were fixed by gently layering 20 µL per well of cold 25% trichloroacetic acid to each well. The incubation time was 40 min and then the plates were washed with tap water. The cells were stained with 20 µL per well of 0.1% sulforhodamine B (SRB, Merck, Darmstadt, Germany) for 30 min. Unbound sulforhodamine B was removed by washing it with 1% acetic acid. The protein-bound dye was extracted in 30 min using 70 µL per well of 10 mM unbuffered Tris base (Merck, Darmstadt, Germany). The absorbance (at 540 nm) was measured on a Synergy H4 photometer (BioTek Instruments, Winooski, VT, USA). The absorbance of the wells without the cells was the background.

[9] = system: human colon cancer HCT116 cells; assay: Antiproliferative activity, SRB assay, 72 h; type: cell-based
Procedure: as §1, §2

[10] = system: human lung carcinoma A549; assay: Antiproliferative activity, SRB assay, 72 h; type: cell-based
Procedure: as §1, §2

[11] = system: human melanoma Hs294T cells; assay: Antiproliferative activity, SRB assay, 72 h; type: cell-based
Procedure: as §1, §2

[12] = system: human pancreas cancer MiaPaca-2 cells; assay: Antiproliferative activity, SRB assay, 72 h; type: cell-based
Procedure: as §1, §2

[13] = system: human prostate adenocarcinoma PC-3; assay: Antiproliferative activity, SRB assay, 72 h; type: cell-based
Procedure: as §1, §2

[14] = system: human normal epithelial cells from the mammary gland (MCF-10A); assay: Cytotoxicity on non-tumorigenic cells, SRB assay, 72 h; type: cell-based; settings: Homo sapiens, MCF-10A normal cells, SRB, read-out: IC50
Procedure: as §1, §2

[15] = system: tested cell lines (MV4-11, A549, MCF-7, PC-3, HCT116, MiaPaca-2, Hs294T); assay: Antiproliferative activity, range over the tested cell lines; type: cell-based; settings: Homo sapiens; range across cell lines, 72 h
Procedure: as §1, with “The values of IC50 (inhibitory concentration 50%) were calculated separately for each experiment (repeated 3–5 times) using the Prolab-3 system which is based on Cheburator 0.4 software. Doxorubicin was applied as a reference drug.” left out
This assay was used against MV4-11 leukemia cells and was performed after 72 h of exposure of the tested agents to the cells. […] After the next 24 h, the absorbance of the samples was measured at a 570 nm wavelength on a Synergy H4 photometer (BioTek Instruments, Winooski, VT, USA). The absorbance of wells without the cells was the background.
The cytotoxicity assay was performed after the cultured cells were exposed to the tested agents for 72 h using the authomatic Washer dyspenser EL406, BioTek. […] The absorbance (at 540 nm) was measured on a Synergy H4 photometer (BioTek Instruments, Winooski, VT, USA). […]

[16] = system: MV4-11 cells; assay: Apoptosis determination via Annexin V and PI staining; type: cell-based, human
Procedure: Camptothecin at a concentration of 0.05 uM was used as a positive control. After incubation, the cells were collected and counted with a hemocytometer, and 1×10^5 cells were washed twice with PBS. APC-Annexin V (Becton Dickinson, Pharmingen, Franklin Lakes, NJ, USA) was dissolved to the concentration of […] in a binding buffer (10 mM HEPES/NaOH, pH 7.4; 150 mM NaCl; 5 mM KCl; 1 mM MgCl2; and 1.8 mM CaCl2) (HIIET, Wrocław, Poland), and the cells were suspended in 200 µL of this solution. After 15 min of the incubation in the dark at room temperature, 20 µL of propidium iodide (PI) solution (0.02 mg/mL) was added. Data acquisition was performed by conducting flow cytometry using a BD LSRFortessa cytometer (BD Bioscience, San Jose, CA, USA). The compounds were tested at least three times independently. Results were analyzed using Flowing software 2.5.1 (Turku, Finland). […] Double-negative cells were live cells, PI+/Annexin V+ were late apoptotic cells, PI-/Annexin V+ were early apoptotic cells, and PI+/Annexin V- were necrotic cells.

[17] = system: caspase-3/7 in MV4-11 cells; assay: Caspase-3/7 activity determination; type: cell-based, human; settings: MV4-11, positive control
Procedure: The MV4-11 cells were seeded on 48-well plates to the final volume of 1 mL. […] After incubation, the cells were collected and centrifuged (5 min, 4 °C, 250× g). Cells were suspended in 50 µL of ice-cold lysis buffer (50 mM HEPES; 10% (w/v) sucrose; 150 mM NaCl; 2 mM EDTA; 1% (v/v) Triton X-100, pH 7.3; and HIIET, Wrocław, Poland) and incubated for 30 min at 4 °C. After the incubation, 40 µL of each sample was transferred to a white 96-well plate (Corning, USA) containing 160 µL of the reaction buffer (20 mM HEPES; 10% sucrose; 100 mM NaCl; 1 mM EDTA; 10 mM DTT; and 0.02% Trition X-100, pH 7.3) (HIIET, Wrocław, Poland) with a 9 µM AC-DEVD-AMC (Cayman Chemical, Ann Arbor, MI, USA) fluorogenic substrate (λex = 360 nm, λem = 460 nm). The correlation of the fluorescence increase with the caspase-3/7 level was continuously recorded at 37 °C for 120 min using Biotek Synergy H4 (Biokom, Warsaw, Poland). Compounds were tested in duplicates in single experiments, and each experiment was repeated at least three times independently. Results were normalized to the number of cells in each well and are reported as the mean relative caspase-3/7 activity compared to the untreated control sample ± SD.

COc1cccc2c1C(=O)c1c(O)c3c(c(O)c1C2=O)C[C@@](O)(C(=O)CO)C[C@@H]3O[C@H]1C[C@H](N)[C@H](O)[C@H](C)O1 [C, doxorubicin]
IC50 [1]: 0.021 ± 0.008 µM
IC50 [2]: 0.04 ± 0.012 µM
IC50 [3]: 0.15 ± 0.015 µM
IC50 [4]: 1.27 ± 0.2 µM
IC50 [5]: 0.118 ± 0.02 µM
IC50 [6]: 0.114 ± 0.013 µM

C=C(C)[C@@H]1CC[C@]2(CO)CC[C@]3(C)C(CCC4[C@@]5(C)CC[C@H](OC(=O)CC(C)(C)CC(=O)O)C(C)(C)C5CC[C@]43C)C12 (stereo partly shown) [Compound 4]
IC50 ([7]; Homo sapiens, MV4-11, 72 h, MTT, read-out: IC50): 4.77 ± 0.44 µM
SI ([7]; IC50 MCF-10A / IC50 MV4-11): 6.60
IC50 ([8]; Homo sapiens, MCF7, MCF-7, 72 h, SRB, read-out: IC50): 12.1 ± 3.08 µM
SI ([8]; IC50 MCF-10A / IC50 MCF-7): 2.60
IC50 ([9]; Homo sapiens, HCT-116, HCT116, 72 h, SRB, read-out: IC50): 11.1 ± 2.56 µM
SI ([9]; IC50 MCF-10A / IC50 HCT116): 2.83
IC50 ([10]; Homo sapiens, A549, 72 h, SRB, read-out: IC50): 3.76 ± 2.05 µM
SI ([10]; IC50 MCF-10A / IC50 A549): 8.36
IC50 ([11]; Homo sapiens, Hs 294T, Hs249T (so in the source), 72 h, SRB, read-out: IC50): 24.4 ± 8.89 µM
SI ([11]; IC50 MCF-10A / IC50 Hs249T (so in the source)): 1.29
IC50 ([12]; Homo sapiens, MIA PaCa-2, MiaPaca-1 (so in the source), 72 h, SRB, read-out: IC50): 22.6 ± 6.5 µM
SI ([12]; IC50 MCF-10A / IC50 MiaPaca-1 (so in the source)): 1.39
IC50 ([13]; Homo sapiens, PC-3, 72 h, SRB, read-out: IC50): 19.2 ± 3.76 µM
SI ([13]; IC50 MCF-10A / IC50 PC-3): 1.64
IC50 [14]: 31.5 ± 1.71 µM
IC50 [15]: 3.76 to 24.4 µM
induction of apoptosis ([16]; MV4-11, 72 h, higher concentrations): induction of apoptosis was observed

CC[C@@]1(O)C(=O)OCc2c1cc1n(c2=O)Cc2cc3ccccc3nc2-1 [camptothecin, reference compound]
induction of apoptosis ([16]; MV4-11, 24 h): induced apoptosis
activity of caspase-3 in comparison to control cells [17]: 5 fold
